Activity calls are given as the source filed them. The rule behind the calls is not given here.
What was measured:
[1] = biological target: T1, Integrin alpha-4/beta-1 (Homo sapiens, UniProt P05556+P13612); assay: Antagonist activity at integrin alpha4beta1 receptor in human CCRF-CEM cells assessed as inhibition of cell adhesion to fibronectin after 1 hr by calcein AM staining-based fluorescence assay
[2] = biological target: T1, Integrin alpha-4/beta-1; assay: Antagonist activity at integrin alpha4beta1 receptor in human CCRF-CEM cells assessed as detachment of adherent cell from fibronectin at 1 to 500 uM after 24 to 48 hrs by MTT assay; format: cell-based
[3] = test system: CCRF-CEM; assay: Cytotoxicity against human CCRF-CEM cells assessed as cell viability at 1 to 500 uM after 24 hrs by propidium iodide staining-based flow cytometric analysis
[4] = test system: CCRF-CEM; assay: Cytotoxicity against human CCRF-CEM cells assessed as cell viability up to 200 uM after 24 hrs by propidium iodide staining-based flow cytometric analysis

T1 sequence (P05556 whole entry): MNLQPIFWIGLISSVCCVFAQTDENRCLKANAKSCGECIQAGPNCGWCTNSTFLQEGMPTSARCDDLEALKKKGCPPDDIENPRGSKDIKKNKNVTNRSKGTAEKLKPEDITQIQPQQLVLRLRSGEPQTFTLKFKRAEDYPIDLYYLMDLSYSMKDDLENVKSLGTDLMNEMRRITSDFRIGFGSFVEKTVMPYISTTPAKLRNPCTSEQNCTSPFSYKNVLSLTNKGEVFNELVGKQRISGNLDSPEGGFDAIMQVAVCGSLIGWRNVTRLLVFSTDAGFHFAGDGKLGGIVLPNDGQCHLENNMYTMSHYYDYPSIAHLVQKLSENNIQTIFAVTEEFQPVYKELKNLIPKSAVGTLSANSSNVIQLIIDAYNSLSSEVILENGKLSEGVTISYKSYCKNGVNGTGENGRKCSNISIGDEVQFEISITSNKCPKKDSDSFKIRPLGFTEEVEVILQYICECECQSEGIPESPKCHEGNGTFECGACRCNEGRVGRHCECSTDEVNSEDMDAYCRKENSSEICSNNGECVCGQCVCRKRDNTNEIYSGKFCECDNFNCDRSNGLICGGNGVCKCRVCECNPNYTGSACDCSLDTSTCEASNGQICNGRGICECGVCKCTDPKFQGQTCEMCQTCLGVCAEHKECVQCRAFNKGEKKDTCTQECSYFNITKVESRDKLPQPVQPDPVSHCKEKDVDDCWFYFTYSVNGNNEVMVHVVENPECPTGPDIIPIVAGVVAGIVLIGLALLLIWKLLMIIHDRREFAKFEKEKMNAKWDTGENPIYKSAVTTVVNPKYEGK
T1 sequence (P13612 whole entry): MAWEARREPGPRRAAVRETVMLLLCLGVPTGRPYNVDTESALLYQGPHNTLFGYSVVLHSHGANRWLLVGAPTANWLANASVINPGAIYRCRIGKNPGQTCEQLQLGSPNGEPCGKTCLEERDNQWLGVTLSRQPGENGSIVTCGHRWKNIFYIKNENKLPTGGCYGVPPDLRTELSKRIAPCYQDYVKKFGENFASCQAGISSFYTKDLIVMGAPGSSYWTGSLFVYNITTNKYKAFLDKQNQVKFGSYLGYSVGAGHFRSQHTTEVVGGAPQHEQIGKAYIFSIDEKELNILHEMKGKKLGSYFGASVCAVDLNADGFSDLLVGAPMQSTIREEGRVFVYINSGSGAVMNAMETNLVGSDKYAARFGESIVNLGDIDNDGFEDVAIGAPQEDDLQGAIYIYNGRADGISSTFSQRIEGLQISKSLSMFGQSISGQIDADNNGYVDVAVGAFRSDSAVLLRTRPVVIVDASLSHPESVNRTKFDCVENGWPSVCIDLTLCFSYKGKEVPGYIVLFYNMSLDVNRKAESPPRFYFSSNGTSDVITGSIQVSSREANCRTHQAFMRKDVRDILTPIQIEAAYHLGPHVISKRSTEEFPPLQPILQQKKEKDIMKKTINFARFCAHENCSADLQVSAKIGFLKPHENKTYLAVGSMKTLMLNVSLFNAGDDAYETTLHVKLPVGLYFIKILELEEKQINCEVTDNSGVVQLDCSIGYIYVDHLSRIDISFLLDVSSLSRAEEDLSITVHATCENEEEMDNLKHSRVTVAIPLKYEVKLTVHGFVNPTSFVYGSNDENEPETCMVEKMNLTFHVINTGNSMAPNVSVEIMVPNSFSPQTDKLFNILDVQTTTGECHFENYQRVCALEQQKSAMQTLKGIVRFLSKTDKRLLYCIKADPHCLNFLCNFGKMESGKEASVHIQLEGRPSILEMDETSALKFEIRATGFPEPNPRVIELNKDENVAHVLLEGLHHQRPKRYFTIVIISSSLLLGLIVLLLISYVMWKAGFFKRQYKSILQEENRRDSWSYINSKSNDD

| Structure (SMILES) | IC50 [1] [µM] | further results |
| --- | --- | --- |
| N=C(N)NCCC[C@H](NC(=O)CN)C(=O)NCC(=O)N[C@@H](CC(=O)O)C(=O)N[C@@H](CO)C(=O)O | > 1000 |  |
| O=C(O)COc1cc(NC(=O)Cc2ccc(NC(=O)Nc3ccccc3C(F)(F)F)cc2)ccc1CCC(=O)OCc1ccccc1 | 64.6 | Activity [2]: Active; Activity [3]: Non-toxic |
| Cc1cccc(C)c1NC(=O)Nc1ccc(CC(=O)Nc2ccc(O)c(CCC(=O)O)c2)cc1 | 138 |  |
| Cc1cccc(C)c1NC(=O)Nc1ccc(CC(=O)Nc2ccc(OCC(=O)O)c(CCC(=O)OCc3ccccc3)c2)cc1 | 24.3 | Activity [4]: Non-toxic; Activity [2]: Active; Activity [3]: Non-toxic |
| COC(=O)[C@@H](NC(=O)[C@H](CC(=O)O)NC(=O)[C@H](CC(C)C)NC(=O)Cc1ccc(NC(=O)Nc2ccccc2C(F)(F)F)cc1)C(C)C | 703 |  |
| Cc1cccc(C)c1NC(=O)Nc1ccc(CC(=O)Nc2ccc(OCC(=O)O)c(CCC(=O)NCCc3ccccc3)c2)cc1 | 106 |  |
| Cc1cccc(C)c1NC(=O)Nc1ccc(CC(=O)Nc2ccc(CCC(=O)OCc3ccccc3)c(OCC(=O)O)c2)cc1 | 81.3 |  |
| O=C(O)CCc1cc(NC(=O)Cc2ccc(NC(=O)Nc3ccccc3C(F)(F)F)cc2)ccc1O | 209 |  |
| O=C(O)Cc1ccc(NC(=O)Nc2ccccc2C(F)(F)F)cc1 | > 1000 |  |
| Cc1cccc(C)c1NC(=O)Nc1ccc(CC(=O)Nc2ccc(CCC(=O)O)c(OCC(=O)OC(C)(C)C)c2)cc1 | 190 |  |

The next lines start with results.

| IC50 [1] [µM] | Structure (SMILES) | further results |
| --- | --- | --- |
| 97.7 | Cc1cccc(C)c1NC(=O)Nc1ccc(CC(=O)Nc2ccc(OCC(=O)O)c(CCC(=O)NCc3ccccc3)c2)cc1 |  |
| > 1000 | Cc1cccc(C)c1NC(=O)Nc1ccc(CC(=O)O)cc1 |  |
| 81.3 | Cc1cccc(C)c1NC(=O)Nc1ccc(CC(=O)Nc2ccc(OCC(=O)O)c(CCC(=O)O)c2)cc1 |  |
| 38.9 | Cc1cccc(C)c1NC(=O)Nc1ccc(CC(=O)Nc2ccc(OCC(=O)O)c(CCC(=O)OCc3ccc(Cl)cc3)c2)cc1 |  |
| 24.5 | Cc1cccc(C)c1NC(=O)Nc1ccc(CC(=O)Nc2ccc(OCC(=O)O)c(CCC(=O)OCCc3ccccc3)c2)cc1 |  |
| 151 | CC(C)(C)OC(=O)COc1ccc(NC(=O)Cc2ccc(NC(=O)Nc3ccccc3C(F)(F)F)cc2)cc1CCC(=O)O |  |
| > 500 | O=C(O)CCc1ccc(NC(=O)Cc2ccc(NC(=O)Nc3ccccc3C(F)(F)F)cc2)cc1O |  |
| 146 | Cc1cccc(C)c1NC(=O)Nc1ccc(CC(=O)Nc2ccc(CCC(=O)O)c(O)c2)cc1 |  |
| 79.4 | CC(C)(C)OC(=O)COc1cc(NC(=O)Cc2ccc(NC(=O)Nc3ccccc3C(F)(F)F)cc2)ccc1CCC(=O)O |  |
| 33.1 | O=C(O)COc1ccc(NC(=O)Cc2ccc(NC(=O)Nc3ccccc3C(F)(F)F)cc2)cc1CCC(=O)OCc1ccccc1 | Activity [4]: Non-toxic |
| 102 | Cc1cccc(C)c1NC(=O)Nc1ccc(CC(=O)Nc2ccc(OCC(=O)OC(C)(C)C)c(CCC(=O)OCc3ccccc3)c2)cc1 |  |

Reference: ChEMBL document CHEMBL3217675, “Diaryl ureaLDV peptidomimetics as 41integrin antagonists: synthesis, adhesion inhibition and toxicity evaluation on CCRF-CEM cell line” (Medchemcomm, 2012)
